What was measured:
[1] = biological target: Muscarinic acetylcholine receptor M3 (Homo sapiens, UniProt P20309)
Estrogen receptor = biological target: T1, Estrogen receptor (Homo sapiens, UniProt P03372)
T1 sequence (P03372 whole entry): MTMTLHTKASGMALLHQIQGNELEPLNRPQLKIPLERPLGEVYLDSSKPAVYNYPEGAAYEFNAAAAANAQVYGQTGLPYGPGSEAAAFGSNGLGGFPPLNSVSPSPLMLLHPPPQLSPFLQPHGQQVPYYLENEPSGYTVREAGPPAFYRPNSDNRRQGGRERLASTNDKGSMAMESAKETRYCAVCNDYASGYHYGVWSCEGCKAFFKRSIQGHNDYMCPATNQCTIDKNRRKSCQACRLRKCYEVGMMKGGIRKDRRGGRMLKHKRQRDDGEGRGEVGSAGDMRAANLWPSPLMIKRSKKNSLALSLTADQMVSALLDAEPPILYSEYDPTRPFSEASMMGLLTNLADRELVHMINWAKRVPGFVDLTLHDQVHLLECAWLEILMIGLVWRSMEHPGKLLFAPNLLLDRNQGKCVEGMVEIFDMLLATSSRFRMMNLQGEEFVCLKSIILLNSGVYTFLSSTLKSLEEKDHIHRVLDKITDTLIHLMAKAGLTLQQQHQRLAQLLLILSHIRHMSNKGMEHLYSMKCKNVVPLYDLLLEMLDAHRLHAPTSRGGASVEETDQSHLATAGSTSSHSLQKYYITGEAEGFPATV

[2] = biological target: T2, Alpha-2B adrenergic receptor (Homo sapiens, UniProt P18089)
T2 sequence (P18089 whole entry): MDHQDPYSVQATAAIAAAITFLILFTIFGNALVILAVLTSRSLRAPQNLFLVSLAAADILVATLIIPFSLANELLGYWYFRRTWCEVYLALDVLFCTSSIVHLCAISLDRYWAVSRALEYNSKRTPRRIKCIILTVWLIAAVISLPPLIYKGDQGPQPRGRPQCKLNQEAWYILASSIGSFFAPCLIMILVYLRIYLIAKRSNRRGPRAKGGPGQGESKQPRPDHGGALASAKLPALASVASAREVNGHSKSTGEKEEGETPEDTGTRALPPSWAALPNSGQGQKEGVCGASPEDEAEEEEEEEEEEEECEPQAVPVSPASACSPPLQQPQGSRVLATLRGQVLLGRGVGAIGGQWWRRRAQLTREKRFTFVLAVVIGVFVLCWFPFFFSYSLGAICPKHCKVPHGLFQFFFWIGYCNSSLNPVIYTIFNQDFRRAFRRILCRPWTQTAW

[3] = biological target: Neurotensin receptor type 1 (Homo sapiens, UniProt P30989)
Chain of Neurotensin receptor type 1 (P30989 whole entry): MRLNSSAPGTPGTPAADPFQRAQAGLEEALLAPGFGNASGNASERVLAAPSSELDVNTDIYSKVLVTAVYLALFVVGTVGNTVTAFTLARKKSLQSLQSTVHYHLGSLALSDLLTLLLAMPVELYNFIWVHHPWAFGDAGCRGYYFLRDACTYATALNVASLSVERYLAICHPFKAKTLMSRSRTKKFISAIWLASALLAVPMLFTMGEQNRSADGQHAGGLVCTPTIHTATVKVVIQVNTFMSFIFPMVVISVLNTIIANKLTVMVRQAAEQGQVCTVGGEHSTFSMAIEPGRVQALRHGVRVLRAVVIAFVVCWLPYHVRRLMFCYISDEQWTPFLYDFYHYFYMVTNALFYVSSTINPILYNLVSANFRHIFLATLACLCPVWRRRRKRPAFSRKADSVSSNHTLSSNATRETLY

[4] = biological target: 5-hydroxytryptamine receptor 2A (Homo sapiens, UniProt P28223); type: functional, cell-based
Chain of 5-hydroxytryptamine receptor 2A (P28223 whole entry): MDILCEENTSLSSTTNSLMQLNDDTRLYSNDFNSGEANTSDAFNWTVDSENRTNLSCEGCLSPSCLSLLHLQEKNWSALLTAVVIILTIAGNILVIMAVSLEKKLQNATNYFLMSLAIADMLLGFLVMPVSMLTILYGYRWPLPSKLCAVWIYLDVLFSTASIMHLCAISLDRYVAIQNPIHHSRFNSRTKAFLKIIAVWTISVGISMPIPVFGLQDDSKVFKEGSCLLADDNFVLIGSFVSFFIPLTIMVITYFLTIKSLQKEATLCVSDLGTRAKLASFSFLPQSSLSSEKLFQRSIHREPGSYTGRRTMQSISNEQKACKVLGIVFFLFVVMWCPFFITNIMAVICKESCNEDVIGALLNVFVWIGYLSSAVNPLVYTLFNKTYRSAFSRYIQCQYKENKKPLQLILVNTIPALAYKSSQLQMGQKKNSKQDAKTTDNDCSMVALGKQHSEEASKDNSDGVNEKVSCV

[5] = biological target: T3, Neuropeptide Y receptor type 2 (Homo sapiens, UniProt P49146)
T3 sequence (P49146 whole entry): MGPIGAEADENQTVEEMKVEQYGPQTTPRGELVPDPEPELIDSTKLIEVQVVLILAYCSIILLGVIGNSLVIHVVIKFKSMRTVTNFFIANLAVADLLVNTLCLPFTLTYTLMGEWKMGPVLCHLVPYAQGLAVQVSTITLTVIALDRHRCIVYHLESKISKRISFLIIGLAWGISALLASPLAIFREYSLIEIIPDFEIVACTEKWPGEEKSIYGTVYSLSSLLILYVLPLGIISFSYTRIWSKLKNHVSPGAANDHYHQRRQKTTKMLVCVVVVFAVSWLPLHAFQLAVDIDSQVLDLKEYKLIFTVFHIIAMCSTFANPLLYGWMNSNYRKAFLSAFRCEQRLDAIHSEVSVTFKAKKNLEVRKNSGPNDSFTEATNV

Cannabinoid receptor 1 = Cannabinoid receptor 1 (Homo sapiens, UniProt P21554)
Chain of Cannabinoid receptor 1 (P21554 whole entry): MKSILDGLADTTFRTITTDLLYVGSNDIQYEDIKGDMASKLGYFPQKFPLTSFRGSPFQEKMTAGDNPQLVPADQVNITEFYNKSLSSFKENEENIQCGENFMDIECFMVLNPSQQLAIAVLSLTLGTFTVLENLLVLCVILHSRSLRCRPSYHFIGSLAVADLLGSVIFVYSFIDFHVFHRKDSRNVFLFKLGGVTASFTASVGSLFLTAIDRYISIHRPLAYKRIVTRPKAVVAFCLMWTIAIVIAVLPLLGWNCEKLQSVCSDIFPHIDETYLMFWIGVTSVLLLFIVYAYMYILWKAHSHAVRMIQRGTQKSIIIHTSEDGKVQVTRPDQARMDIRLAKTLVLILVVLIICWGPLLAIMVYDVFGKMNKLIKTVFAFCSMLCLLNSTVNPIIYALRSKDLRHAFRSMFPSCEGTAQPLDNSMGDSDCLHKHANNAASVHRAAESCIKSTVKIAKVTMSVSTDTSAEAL

[6] = biological target: T4, Corticotropin-releasing factor receptor 2 (Homo sapiens, UniProt Q13324)
T4 sequence (Q13324 whole entry): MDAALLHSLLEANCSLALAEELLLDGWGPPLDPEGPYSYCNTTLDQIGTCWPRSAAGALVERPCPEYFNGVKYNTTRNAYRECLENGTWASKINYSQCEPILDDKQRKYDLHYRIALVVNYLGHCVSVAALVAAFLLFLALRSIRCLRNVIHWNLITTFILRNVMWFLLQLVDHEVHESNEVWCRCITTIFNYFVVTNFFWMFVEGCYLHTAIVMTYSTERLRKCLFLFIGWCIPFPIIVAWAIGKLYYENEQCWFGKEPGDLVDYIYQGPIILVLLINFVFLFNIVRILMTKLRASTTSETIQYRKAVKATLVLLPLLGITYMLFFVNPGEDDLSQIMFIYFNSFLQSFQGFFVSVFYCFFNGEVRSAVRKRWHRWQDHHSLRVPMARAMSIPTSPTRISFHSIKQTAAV

Androgen receptor = biological target: T5, Androgen receptor (Rattus norvegicus, UniProt P15207); type: functional
T5 sequence (P15207 whole entry): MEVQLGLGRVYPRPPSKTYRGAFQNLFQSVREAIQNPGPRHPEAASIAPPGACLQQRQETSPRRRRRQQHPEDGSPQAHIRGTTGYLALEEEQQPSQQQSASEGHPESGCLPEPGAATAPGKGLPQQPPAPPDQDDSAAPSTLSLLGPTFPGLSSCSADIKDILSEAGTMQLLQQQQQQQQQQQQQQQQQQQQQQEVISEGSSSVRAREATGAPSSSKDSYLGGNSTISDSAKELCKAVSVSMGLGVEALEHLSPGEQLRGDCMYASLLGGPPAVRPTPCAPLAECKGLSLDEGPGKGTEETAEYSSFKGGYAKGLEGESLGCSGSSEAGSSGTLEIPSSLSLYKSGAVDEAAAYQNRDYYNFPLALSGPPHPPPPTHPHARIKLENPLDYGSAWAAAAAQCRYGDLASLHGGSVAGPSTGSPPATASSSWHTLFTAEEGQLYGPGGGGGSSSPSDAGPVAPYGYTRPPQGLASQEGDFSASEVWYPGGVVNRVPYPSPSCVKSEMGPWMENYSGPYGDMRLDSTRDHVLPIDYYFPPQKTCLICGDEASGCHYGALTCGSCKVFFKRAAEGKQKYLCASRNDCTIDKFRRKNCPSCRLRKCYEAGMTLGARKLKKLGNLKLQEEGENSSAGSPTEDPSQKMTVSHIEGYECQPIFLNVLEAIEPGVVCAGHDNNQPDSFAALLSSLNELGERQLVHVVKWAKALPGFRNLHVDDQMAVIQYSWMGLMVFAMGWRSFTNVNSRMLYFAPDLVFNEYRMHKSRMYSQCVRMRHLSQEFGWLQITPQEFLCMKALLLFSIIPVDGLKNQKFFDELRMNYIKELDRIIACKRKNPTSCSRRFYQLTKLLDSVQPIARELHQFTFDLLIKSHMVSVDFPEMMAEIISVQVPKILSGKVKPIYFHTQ
Also: assay procedure not described here.

Chain of Muscarinic acetylcholine receptor M3 (P20309 whole entry): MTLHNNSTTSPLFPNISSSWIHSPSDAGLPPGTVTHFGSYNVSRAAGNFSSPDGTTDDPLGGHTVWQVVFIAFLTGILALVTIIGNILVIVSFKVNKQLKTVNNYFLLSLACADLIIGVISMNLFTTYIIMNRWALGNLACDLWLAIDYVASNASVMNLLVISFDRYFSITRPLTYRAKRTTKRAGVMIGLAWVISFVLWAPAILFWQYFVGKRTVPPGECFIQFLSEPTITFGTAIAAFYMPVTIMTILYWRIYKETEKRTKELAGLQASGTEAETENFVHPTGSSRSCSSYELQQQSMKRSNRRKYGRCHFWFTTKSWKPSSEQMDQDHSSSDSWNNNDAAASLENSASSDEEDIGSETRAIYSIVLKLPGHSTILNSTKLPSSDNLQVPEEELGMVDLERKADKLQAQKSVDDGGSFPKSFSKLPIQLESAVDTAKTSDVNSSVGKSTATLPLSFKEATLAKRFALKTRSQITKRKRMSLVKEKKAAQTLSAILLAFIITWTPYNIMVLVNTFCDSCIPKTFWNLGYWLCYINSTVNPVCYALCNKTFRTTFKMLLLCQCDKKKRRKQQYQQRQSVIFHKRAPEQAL

`CC(C)C[C@H](CN)CC(=O)O` [PREGABALIN] showed an AC50 [1] greater than 30 µM, an AC50 (Estrogen receptor) greater than 30 µM and an AC50 [2] greater than 30 µM. It also gave an AC50 [3] greater than 30 µM, an AC50 [4] greater than 30 µM and an AC50 [5] greater than 30 µM. For the same compound, the AC50 (Cannabinoid receptor 1) was greater than 30 µM and the AC50 [6] was greater than 30 µM.

Work on `CC1(C)O[C@@H]2[C@@H](CO[C@@]3(COS(N)(=O)=O)OC(C)(C)O[C@@H]23)O1` [TOPIRAMATE] yielded an AC50 (Estrogen receptor) greater than 30 µM, an AC50 [2] greater than 10 µM and an AC50 [3] greater than 30 µM. It also gave an AC50 [5] greater than 30 µM, an AC50 (Cannabinoid receptor 1) greater than 10 µM and an AC50 [6] greater than 30 µM.

Work on `CC(=O)S[C@@H]1CC2=CC(=O)CC[C@]2(C)[C@H]2CC[C@@]3(C)[C@@H](CC[C@@]34CCC(=O)O4)[C@H]12` [SPIRONOLACTONE] yielded an AC50 (Estrogen receptor) greater than 30 µM, an AC50 [3] greater than 30 µM and an AC50 [5] greater than 30 µM. It also gave an AC50 (Cannabinoid receptor 1) greater than 10 µM and an AC50 [6] greater than 30 µM.

With `COC(=O)[C@H](c1ccccc1Cl)N1CCc2sccc2C1` [CLOPIDOGREL] the AC50 (Estrogen receptor) was greater than 30 µM, the AC50 [3] was greater than 30 µM and the AC50 [5] was greater than 30 µM. It also gave an AC50 (Cannabinoid receptor 1) greater than 30 µM and an AC50 [6] greater than 30 µM.

With `CN1C[C@H](C(=O)N[C@]2(C)O[C@@]3(O)[C@@H]4CCCN4C(=O)[C@H](Cc4ccccc4)N3C2=O)C[C@@H]2c3cccc4[nH]cc(c34)C[C@H]21` [DIHYDROERGOTAMINE] the AC50 (Estrogen receptor) was greater than 30 µM, the AC50 [3] was greater than 30 µM and the AC50 [5] was greater than 30 µM. It also gave an AC50 (Cannabinoid receptor 1) greater than 10 µM and an AC50 [6] greater than 30 µM.

In the case of `CCCN(CCC)CCc1cccc2c1CC(=O)N2` [ROPINIROLE], the AC50 [1] is reported as greater than 30 µM, the AC50 [3] is reported as greater than 30 µM and the AC50 [4] is reported as 12 µM. It also gave an AC50 [5] greater than 30 µM, an AC50 (Cannabinoid receptor 1) greater than 10 µM and an AC50 [6] greater than 30 µM.

`CC1(C)S[C@@H]2[C@H](NC(=O)[C@H](N)c3ccc(O)cc3)C(=O)N2[C@H]1C(=O)O` [AMOXICILLIN] was tested, and the AC50 [3] was greater than 30 µM, the AC50 (Androgen receptor) was greater than 30 µM and the AC50 [5] was greater than 30 µM. It also gave an AC50 (Cannabinoid receptor 1) greater than 30 µM and an AC50 [6] greater than 30 µM.

For `COc1ccnc(C[S+]([O-])c2nc3ccc(OC(F)F)cc3[nH]2)c1OC` (stereo unspecified) [PANTOPRAZOLE], the AC50 (Estrogen receptor) was greater than 30 µM, the AC50 [3] was greater than 30 µM and the AC50 [5] was greater than 30 µM. It also gave an AC50 (Cannabinoid receptor 1) greater than 10 µM and an AC50 [6] greater than 30 µM.

`CNC[C@H](O)c1cccc(O)c1` [PHENYLEPHRINE] showed an AC50 [1] greater than 30 µM, an AC50 [3] greater than 30 µM and an AC50 [4] greater than 30 µM. For the same compound, the AC50 [5] was greater than 30 µM, the AC50 (Cannabinoid receptor 1) was greater than 10 µM and the AC50 [6] was greater than 30 µM.

Reference: ChEMBL document CHEMBL5291721, “A preclinical secondary pharmacology resource illuminates target-adverse drug reaction associations of marketed drugs” (Nat Commun, 2023)
